Source: paper PMC9847679, “The anti-breast cancer stem cell properties of gold(I)-non-steroidal anti-inflammatory drug complexes” (Chemical Science, 2022)

Tests used:
4T1 cells = experiment: Monolayer cytotoxicity (MTT assay), 4T1 cells; assay type: cell-based, murine; conditions: 72 h incubation
Text: Cell Lines and Cell Culture Conditions. The human mammary epithelial HMLER and HMLER-shEcad cell lines were kindly donated by Prof. R. A. Weinberg (Whitehead Institute, MIT). The human epithelial breast MCF10A, breast adenocarcinoma MDA-MB-231 and MDA-MB-468, murine epithelial breast 4T1, and embryonic kidney HEK 293 cell lines were acquired from American Type Culture Collection (ATCC, Manassas, VA, USA).
HMLER, HMLER-shEcad, and MCF10A cells were maintained in Mammary Epithelial Cell Growth Medium (MEGM) with supplements and growth factors (BPE, hydrocortisone, hEGF, insulin, and gentamicin/amphotericin-B). MDA-MB-231, MDA-MB-468, 4T1, and HEK 293 cells were maintained in Dulbecco's Modified Eagle's Medium (DMEM) supplemented with fetal bovine serum (10 %) and penicillin/streptomycin (1 %). The cells were grown at 310 K in a humidified atmosphere containing 5% CO2.
Monolayer Cytotoxicity Studies. Exponentially growing cells were seeded at a density of approximately 5 × 10^3 cells per well in 96-well flat-bottomed microplates and allowed to attach for 24 h prior to addition of compounds. Various concentrations of the test compounds (0.0004-100 μM) were added and incubated for 72 h at 37 °C (total volume 200 μl). Stock solutions of the compounds were prepared as 10 mM DMSO solutions and diluted using cell […]
media. The final concentration of DMSO in each well was ≤1 %. […] The optical density was measured at 550 nm using a 96-well multiscanner autoreader. Absorbance values were normalised to (DMSO-containing) control wells and plotted as concentration of test compound versus % cell viability. […]
h, the fluorescence of the solutions was read at 590 nm (λex = 560 nm). […]
Cellular Uptake. […] The number of cells was counted at this stage, using a haemocytometer. […] All samples were diluted 17-fold with water and analysed using inductively coupled plasma mass spectrometry (ICP-MS, Thermo Scientific ICAP-Qc quadrupole ICP mass spectrometer). Gold levels are expressed as mass of Au (ng) per million cells. […]

[1] = Water-octanol partition coefficient (shake-flask, UV-vis); assay type: physicochemical; conditions: room temperature 24 h
Method: Measurement of water-octanol partition coefficient (LogP). The LogP values for 1-8 were determined using the shake-flask method and UV-vis spectroscopy. The 1-octanol used in this experiment was pre-saturated with water. An aqueous solution of 1-8 (500 μL, 100 μM) was incubated with 1-octanol (500 μL) in a 1.5 mL tube. The tube was shaken at room temperature for 24 h. The two phases were separated by centrifugation and the 1-8 content in each phase was determined by UV-vis spectroscopy. […]

HMLER-shEcad cells = experiment: FITC Annexin V-propidium iodide assay; assay type: cell-based, human; conditions: IC50 value ×2, 48 h
Method: Annexin V-Propidium Iodide Assay. HMLER-shEcad cells were incubated with and […]
harvested from adherent cultures by trypsinisation. The FITC Annexin V/Dead Cell Apoptosis Kit was used. The manufacture’s (Thermo Fisher Scientific) protocol was followed to carry out this experiment.
1× Annexin binding buffer (100 µL) (10 mM HEPES, 140 mM NaCl, 2.5 mM CaCl2, pH 7.4), then 5 µL FITC Annexin V and 1 µL PI (100 µg/ mL) were added to each sample and incubated at room temperature for 15 min. After which more 1× Annexin binding buffer (400 µL) was added while gently mixing. The cells were analysed using a FACSCanto II flow cytometer (BD Biosciences) (10,000 events per sample were acquired) at the University of Leicester FACS Facility. The FL1 channel was used to assess Annexin V binding and the FL2 channel was used to assess PI uptake. Cell populations were analysed using the FlowJo […]
ice-cold methanol (for 30 min), and suspended in PBS (200 μL). […]
COX-2 Inhibition Enzyme Immunoassay (EIA). […]
(ovine) Inhibitor Screening Assay (Cayman Chemicals).” The assay was performed according to the manuf acturer’s instructions using a 96-well plate set up.

In the case of `COc1ccc2c(c1)c(CC(=O)[O][Au][PH](c1ccccc1)(c1ccccc1)c1ccccc1)c(C)n2C(=O)c1ccc(Cl)cc1` [complex 1], the IC50 (4T1 cells) is reported as 2240 ± 110 nM, the LogP value [1] is reported as 1.64 ± 0.42 and the apoptosis induction (HMLER-shEcad cells) is reported as “induced large populations of cells to undergo late-stage apoptosis”.
